Reference: patent publication US5908868A, “Retinol derivatives useful for enhancing immune response” (priority 1995, dated 1999)
Entries after “also recorded” stand apart in the source; their conditions may differ.

Legend:
5/2 cells = assay: Growth (DNA synthesis, [3H]thymidine) of lymphoblastoid 5/2 cells in serum-free medium; assay type: cell-based, human; details: ITLB medium without retinol
Experimental: Washed 5/2 cells (5,000/well) were incubated for 72 hours in HB101 medium with the indicated amounts of retinoids. DNA synthesis was measured by [^3 H] thymidine uptake. The measurements were done in triplicate. The SDs were <15%.
In FIGS. 4B to 4D, 5/2 cells were washed twice and seeded at a concentration of 150,000 cells/ml in HB 101 medium. Triplicate samples of 100 μl of cell suspension were removed daily and pulsed for 6 hours with [^3 H] thymidine. Means are shown. The SDs were never >20%.
P3 was purified as described in the Experimental Details section. 5/2 cells (5,000/well) were incubated for 72 hours in HB101 medium and refed with the indicated amount of retinoid daily. DNA synthesis was measured by [^3 H]-thymidine uptake. P3 is bioactive down to a concentration of 10-^8 M (FIG. 8). […] This is due either to chemical instability or to a more rapid metabolic degradation of P3 by the cells.
The assay was done in 96-well microtiter plates in a final volume of 200 ul/well. The cells were cultured for 72 hours and cell growth determined by [^3 H] thymidine (0.8 μCi/well)labeling for the last 16 hours. Retinoids were added at the indicated concentrations at the initiation of culture and every 24 hours thereafter.
The human EBV-transformed B-cell line 5/2 was established from the peripheral blood of a healthy donor. The cell line was grown in RPMI 1640 supplemented with 8% fetal calf serum, L-glutamine (2 mM), and antibiotics. The cell line was tested regularly for mycoplasma infections and was consistently negative.
The assay system is a modification of the assay developed by Blazar et al. (12). […] Assays were done in 96 well microtiter plates in a final volume of 200 μl/well or in 25 cm^2 tissue culture flasks. The cells in the microtiter plates were cultured for 72 hours and cell growth was determined by labeling for the last 16 hours with 0.8 μCi/well of [^3 H]thymidine (sp. act. 6.7 Ci/mmol). Growth in the culture flasks was determined in three aliquots of 100 μl taken at 24 hours intervals and cultured in the presence of 0.8 μCi of [^3 H]thymidine for an additional 6 hour period. To determine the viable cell number, nine aliquots per time point were differentially counted in a Neubauer chamber in the presence of trypan blue.
5/2 cells were grown in the absence of retinol in a medium containing the basic RPMI 1640 amino acid/salt mixture, insulin (5 μg/ml), transferrin (5 μg/ml), albumin (0.1%) and linoleic acid (10^-6 M) (ITLB). […] The dose-response curve shown in FIG. 26 indicates an effective concentration of 10^-7 M.

T cells = assay: T cell activation/proliferation; assay type: cell-based, murine; details: with mitogen/anti-CD3
Experimental: They were seeded into 96-well flat-bottom plates at varying cellular densities in a final volume of 100 μl. In control experiments, cells were cultured in medium containing 10% FCS or 3% human serum and 5×10^-5 M 2 ME. […] Cultures were carried out in duplicate. Plates were incubated at 37° C. in a humidified 5% CO2 atmosphere. Cellular proliferation was determined by [^3 H] thymidine uptake (0.5 uCi/well; New England Nuclear, Boston, Mass.) after the incubation times indicated for each experiment with a 4 hour labeling pulse. Cells were harvested onto glass filter and [^3 H]TdR incorporation was determined by liquid scintillation counting. The data presented are the means of duplicate or six replicate cultures. The restriction to duplicate measurements was necessary to conserve scarce 14HRR. […] Each experiment was repeated at least twice.

lymphoblastoid 5/2 cells = assay: Conversion of 13,14DHR to 14HRR by lymphoblastoid cells; assay type: in vitro ADME, human; details: 10^-6 M, 1 and 2 hours, ITLB
Experimental: FIGS. 25A through 25D. 13,14DHR can be converted to 14HRR by lymphoblastoid cells. 200,000 5/2 cells/ml were incubated with or without 10^-6 M 13,14DHR added in serum-free ITLB medium. After 1 and 2 hours, cells pellets corresponding to 10 ml of culture were delipidated and the corresponding lipid fractions separated on an analytical C18 reversed-phase column according to FIG. 20. Peaks were identified according to their retention times and their UV absorption patterns.
Lymphoblastoid 5/2 cells devoid of retinol were cultured in the presence or absence of 10^-6 M 13,14DHR for 1 and 2 hours in ITLB medium. The retinoids extracted from the cell pellets were separated by HPLC according to FIG. 20. […] There was no 14HRR measurable in control cultures.

lymph node T cells = assay: Proliferation of anti-CD3 activated lymph node T cells; assay type: cell-based, BALB/c mouse
Text: Growth curves of lymph node T cells depleted of antigen-presenting cells (FIG. 17A) with and without 10^-6 M retinol at 2×10^5 and 5×10^4 cells/well. (FIG. 17B) Dose-responses elicited by different retinoids in cultures of lymph node T cells depleted of antigen-presenting cells. Also shown are the growth curves of CD4^+ (FIG. 17C) and CD8^+ T lymphocytes (FIG. 17D) in the presence of either retinol, 14HRR, human serum or in their absence.
T lymphocytes, purified as described, 5×10^4 well, were activated with immobilized anti-CD3 antibody in ITLB medium. The indicated amounts of retinoids or human serum were added at initiation of cultures. […] 14HRR was added every 12 hours. DNA synthesis was measured by a 4 hour pulse with tritiated thymidine. SDs were ≤17%.
Mature T cells were obtained from pooled intestinal, axillary, inguinal and submandibular lymph nodes of 4 to 10-week-old BALB/c mice. To fractionate cells into CD4 and CD8 subsets and at the same time remove APC, a combination of adherence and complement lysis was used as follows:
Cells were cultured in serum-free medium, referred to as ITLB, containing RPMI 1640 supplemented with 8×10^-7 M insulin (5 μg/ml), 7×10^-8 M transferrin (5 μg/ml), 2×10^-6 M linoleic acid, 2×10^-6 M delipidated BSA (0.12 mg/ml), 2 mM L-glutamine, 1 mM sodium pyruvate and antibiotics. They were seeded into 96-well flat-bottom plates at varying cellular densities in a final volume of 100 μl. In control experiments, cells were cultured in medium containing 10% FCS or 3% human serum and 5×10^-5 M 2 ME. T cells and thymocytes were activated with immobilized, purified anti-mab CD3e or by the addition of Con A in the presence or absence of different concentrations of retinoids. Unless indicated otherwise, retinoids were replenished every 12 hours to maintain a reasonably constant concentration of these labile compounds in culture. The optimal concentration for stimulation of T cells was determined for each batch of anti-CD3 mAb and Con A. The optimal range of Con A was particularly narrow in serum-free medium (0.5-0.2 μg/ml) and varied with the cell density used. […] Cultures were carried out in duplicate. Plates were incubated at 37° C. in a humidified 5% CO2 atmosphere. Cellular proliferation was determined by [^3 H] thymidine uptake (0.5 uCi/well; New England Nuclear, Boston, Mass.) after the incubation times indicated for each experiment with a 4 hour labeling pulse. Cells were harvested onto glass filter and [^3 H]TdR incorporation was determined by liquid scintillation counting. The data presented are the means of duplicate or six replicate cultures. The restriction to duplicate measurements was necessary to conserve scarce 14HRR. They were within 20% of each other. Each experiment was repeated at least twice.

[1] = tested on: lymphoblastoid cells (LCL); details: serum-free medium; cited from earlier work

With `CC(C=CC1=C(C)CCCC1(C)C)=CC=CC(C)(O)C(O)CO` (stereo not drawn) [13,14DHR, 13,14-dihydroxy-retinol] the “restoration of capacity to proliferate” value (5/2 cells) was “proliferation was restored as well”, the “substitution for retinol in T cell activation” value (from here on “substitution for retinol”) (T cells) was “can effectively substitute for retinol” and the “substitution for retinol” value (T cells; listed as 13,14 DHR) was “capable of being used in lieu of retinol”. For the same compound, the “conversion to 14HRR” value (lymphoblastoid 5/2 cells) was “produced 14HRR”.

With `CC1=C(/C=C/C(C)=C/C=C/C(C)=C/C(=O)O)C(C)(C)CCC1` [all-trans retinoic acid] the “stimulatory activity at 10^-5 M” value (lymph node T cells; 10^-5 M) was “very modest stimulatory activity”, the “stimulation of lymph node T cells” value (lymph node T cells; anti-CD3) was “nearly inert” and the “substitution for retinol” value (T cells) was “not”. The “substitution for retinol” value (T cells; listed as retinoic acid) was “cannot be satisfied; also recorded: neither respond to externally provided retinoic acid” and the “support of growth of LCL” value [1] was “not”.
